Measurements taken from article PMC7411887, “New Paracyclophanylthiazoles with Anti-Leukemia Activity: Design, Synthesis, Molecular Docking, and Mechanistic Studies” (Molecules, 2020).

Key:
Assay in all cases: NCI five-dose assay
K-562 = type: cell-based; conditions: Leukemia K-562
RPMI-8226 = type: cell-based; conditions: Leukemia RPMI-8226
SR = type: cell-based; conditions: Leukemia SR
HOP-62 = type: cell-based, human; conditions: Non-Small-Cell Lung Cancer HOP-62
HOP-92 = type: cell-based; conditions: Non-Small-Cell Lung Cancer HOP-92
NCI-H322M = type: cell-based, human; conditions: Non-Small-Cell Lung Cancer NCI-H322M
NCI-H460 = type: cell-based; conditions: Non-Small-Cell Lung Cancer NCI-H460
HCC-2998 = type: cell-based; conditions: Colon Cancer HCC-2998
HCT-116 = type: cell-based; conditions: Colon Cancer HCT-116
HCT-15 = type: cell-based; conditions: Colon Cancer HCT-15
HT29 = type: cell-based; conditions: Colon Cancer HT29
KM12 = type: cell-based; conditions: Colon Cancer KM12
U251 = type: cell-based; conditions: CNS Cancer U251
M14 = type: cell-based; conditions: Homo sapiens, Melanoma M14
MDA-MB-435 = type: cell-based; conditions: Homo sapiens, Melanoma MDA-MB-435
SK-MEL-2 = type: cell-based; conditions: Melanoma SK-MEL-2
SK-MEL-28 = type: cell-based; conditions: Melanoma SK-MEL-28
OVCAR-4 = type: cell-based, human; conditions: Ovarian Cancer OVCAR-4
OVCAR-8 = type: cell-based; conditions: Ovarian Cancer OVCAR-8
NCI/ADR-RES = type: cell-based; conditions: Homo sapiens, Ovarian Cancer NCI/ADR-RES
SK-OV-3 = type: cell-based; conditions: Ovarian Cancer SK-OV-3
786-0 = type: cell-based; conditions: Renal Cancer 786-0
ACHN = type: cell-based; conditions: Renal Cancer ACHN
RXF393 = type: cell-based; conditions: Renal Cancer RXF393
TK-10 = type: cell-based, human; conditions: Renal Cancer TK-10
PC-3 = type: cell-based; conditions: Prostate Cancer PC-3
MDA-MB-231/ATCC = type: cell-based; conditions: Breast Cancer MDA-MB-231/ATCC
BT-549 = type: cell-based, human; conditions: Breast Cancer BT-549
OVCAR-3 = tested on: OVCAR-3
MDA-MB-468 = tested on: MDA-MB-468
[1] = Homo sapiens, read-out: GI50 Concentration/Cell Line
[2] = Homo sapiens, read-out: LC50 (the source's name)
[3] = read-out: GI50 Concentration/Cell Line

COC(=O)C=C1SC(=NNC(=O)c2cc3ccc2CCc2ccc(cc2)CC3)N(c2ccccc2)C1=O [Compound 3a] was tested, and the GI50 (K-562; Homo sapiens, K562, read-out: GI50 Concentration/Cell Line) was 3.15 µM, the CC50 (K-562; Homo sapiens, K562, read-out: LC50 (the source's name)) was over 100 µM and the “TGI Concentration/Cell Line” value (K-562) was over 100 µM. For the same compound, the LC50 (RPMI-8226; Homo sapiens) was over 100 µM, the GI50 (RPMI-8226; [1]) was 2.15 µM and the “TGI Concentration/Cell Line” value (RPMI-8226) was 5.69 µM. For the same compound, the GI50 (SR; [1]) was 2.46 µM, the CC50 (SR; [2]) was over 100 µM and the “TGI Concentration/Cell Line” value (SR) was over 100 µM. The GI50 (HOP-62; [1]) was 2.68 µM, the “TGI Concentration/Cell Line” value (HOP-62) was 6.97 µM and the GI50 (HOP-92; [1]) was 1.91 µM. For the same compound, the CC50 (HOP-92; [2]) was over 100 µM, the “TGI Concentration/Cell Line” value (HOP-92) was 9.14 µM and the GI50 (NCI-H322M; [1]) was 2.02 µM. For the same compound, the “TGI Concentration/Cell Line” value (NCI-H322M) was 4.75 µM, the LC50 (50% lethal concentration) (NCI-H460; Homo sapiens) was 8.82 µM and the GI50 (NCI-H460; [1]) was 2.08 µM. For the same compound, the “TGI Concentration/Cell Line” value (NCI-H460) was 4.29 µM, the “TGI Concentration/Cell Line” value (HCC-2998) was 3.45 µM and the LC50 (HCC-2998; Homo sapiens) was 6.68 µM. For the same compound, the GI50 (HCC-2998; [1]) was 1.78 µM, the “TGI Concentration/Cell Line” value (HCT-116) was 3.66 µM and the LC50 (HCT-116; Homo sapiens) was 7.51 µM. The GI50 (HCT-116; [1]) was 1.79 µM, the “TGI Concentration/Cell Line” value (HCT-15) was 4.05 µM and the LC50 (HCT-15; Homo sapiens) was 8.76 µM. The GI50 (HCT-15; [1]) was 1.87 µM, the “TGI Concentration/Cell Line” value (HT29) was 4.07 µM and the LC50 (HT29; Homo sapiens, HT-29) was 8.56 µM. The GI50 (HT29; Homo sapiens, HT-29, read-out: GI50 Concentration/Cell Line) was 1.93 µM, the “TGI Concentration/Cell Line” value (KM12) was 4.15 µM and the GI50 (KM12; [1]) was 2.03 µM. For the same compound, the CC50 (KM12; [2]) was 8.51 µM, the “TGI Concentration/Cell Line” value (U251) was 4.00 µM and the GI50 (U251; Homo sapiens, U-251, read-out: GI50 Concentration/Cell Line) was 1.89 µM. For the same compound, the CC50 (U251; Homo sapiens, U-251, read-out: LC50 (the source's name)) was 8.47 µM, the LC50 (M14) was over 100 µM and the GI50 (M14; [3]) was 3.27 µM. For the same compound, the LC50 (concentration causing 50% net cell kill) (MDA-MB-435) was over 100 µM, the GI50 (MDA-MB-435; [3]) was 5.44 µM and the LC50 (concentration causing 50% net cell kill) (SK-MEL-2; Homo sapiens) was over 100 µM. The GI50 (SK-MEL-2; [1]) was 2.65 µM, the “TGI Concentration/Cell Line” value (SK-MEL-2) was 7.76 µM and the LC50 (concentration causing 50% net cell kill) (SK-MEL-28; Homo sapiens) was over 100 µM. The GI50 (SK-MEL-28; [1]) was 2.97 µM, the “TGI Concentration/Cell Line” value (SK-MEL-28) was 9.87 µM and the GI50 (OVCAR-4; [1]) was 3.17 µM. For the same compound, the “TGI Concentration/Cell Line” value (OVCAR-4) was 9.88 µM, the GI50 (OVCAR-8; [1]) was 3.08 µM and the CC50 (OVCAR-8; [2]) was over 100 µM. For the same compound, the “TGI Concentration/Cell Line” value (OVCAR-8) was over 100 µM, the LC50 (NCI/ADR-RES) was over 100 µM and the GI50 (NCI/ADR-RES; [3]) was 2.92 µM. For the same compound, the LC50 (NCI lethal concentration, 50% cell kill) (SK-OV-3; Homo sapiens) was over 100 µM, the GI50 (SK-OV-3; [1]) was 3.55 µM and the “TGI Concentration/Cell Line” value (SK-OV-3) was 7.53 µM. For the same compound, the GI50 (786-0; [1]) was 2 µM, the CC50 (786-0; [2]) was 9.58 µM and the “TGI Concentration/Cell Line” value (786-0) was 4.38 µM. The GI50 (ACHN; [1]) was 1.78 µM, the CC50 (ACHN; [2]) was 6.08 µM and the “TGI Concentration/Cell Line” value (ACHN) was 3.29 µM. The LC50 (50% lethal concentration) (RXF393; Homo sapiens, RXF 393) was over 100 µM, the “TGI Concentration/Cell Line” value (RXF393) was 3.86 µM and the GI50 (TK-10; [1]) was 2.03 µM. The “TGI Concentration/Cell Line” value (TK-10) was 5.60 µM, the LC50 (PC-3; Homo sapiens) was 7.7 µM and the GI50 (PC-3; [1]) was 1.71 µM. For the same compound, the “TGI Concentration/Cell Line” value (PC-3) was 3.63 µM, the “TGI Concentration/Cell Line” value (MDA-MB-231/ATCC) was 7.46 µM and the LC50 (MDA-MB-231/ATCC; Homo sapiens) was over 100 µM. The GI50 (MDA-MB-231/ATCC; [1]) was 2.63 µM, the “TGI Concentration/Cell Line” value (BT-549) was 5.35 µM and the GI50 (BT-549; [1]) was 2.22 µM. The GI50 (OVCAR-3; Homo sapiens, OVCAR-3, read-out: GI50 Concentration/Cell Line) was 1.8 µM, the CC50 (OVCAR-3; Homo sapiens, OVCAR-3, read-out: LC50) was 7.23 µM and the “TGI Concentration/Cell Line” value (OVCAR-3; Ovarian Cancer OVCAR-3) was 3.61 µM. For the same compound, the “TGI Concentration/Cell Line” value (MDA-MB-468; Breast Cancer MDA-MB-468) was 3.74 µM, the GI50 (MDA-MB-468; Homo sapiens, MDA-MB-468, read-out: GI50 Concentration/Cell Line) was 1.84 µM and the CC50 (MDA-MB-468; Homo sapiens, MDA-MB-468, read-out: LC50) was 7.61 µM.
